Data from ChEMBL document CHEMBL3991601, “The target landscape of clinical kinase drugs” (Science, 2017).
Activity calls are given as the source filed them. On the calls: in the data inactive means no Kd found up to 30 µM.

Tests used:
[1] = molecular target: T1, Bifunctional phosphoribosylaminoimidazole carboxylase/phosphoribosylaminoimidazole succinocarboxamide synthetase (Homo sapiens, UniProt P22234)
T1 sequence (P22234 whole entry): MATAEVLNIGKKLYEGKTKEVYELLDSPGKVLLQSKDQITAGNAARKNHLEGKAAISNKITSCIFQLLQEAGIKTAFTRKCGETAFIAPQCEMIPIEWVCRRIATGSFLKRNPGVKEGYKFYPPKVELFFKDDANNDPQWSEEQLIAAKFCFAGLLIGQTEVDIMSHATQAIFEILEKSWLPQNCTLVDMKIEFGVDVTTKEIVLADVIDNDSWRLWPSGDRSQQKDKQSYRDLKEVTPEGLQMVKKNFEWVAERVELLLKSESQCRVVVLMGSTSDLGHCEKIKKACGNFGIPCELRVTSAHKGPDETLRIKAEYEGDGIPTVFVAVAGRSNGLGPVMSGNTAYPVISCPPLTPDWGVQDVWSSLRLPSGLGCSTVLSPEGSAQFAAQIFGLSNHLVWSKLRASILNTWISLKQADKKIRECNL

[2] = molecular target: Mitogen-activated protein kinase 1 (Homo sapiens, UniProt P28482)
[3] = molecular target: T2, Membrane-associated tyrosine- and threonine-specific cdc2-inhibitory kinase (Homo sapiens, UniProt Q99640)
T2 sequence (Q99640 whole entry): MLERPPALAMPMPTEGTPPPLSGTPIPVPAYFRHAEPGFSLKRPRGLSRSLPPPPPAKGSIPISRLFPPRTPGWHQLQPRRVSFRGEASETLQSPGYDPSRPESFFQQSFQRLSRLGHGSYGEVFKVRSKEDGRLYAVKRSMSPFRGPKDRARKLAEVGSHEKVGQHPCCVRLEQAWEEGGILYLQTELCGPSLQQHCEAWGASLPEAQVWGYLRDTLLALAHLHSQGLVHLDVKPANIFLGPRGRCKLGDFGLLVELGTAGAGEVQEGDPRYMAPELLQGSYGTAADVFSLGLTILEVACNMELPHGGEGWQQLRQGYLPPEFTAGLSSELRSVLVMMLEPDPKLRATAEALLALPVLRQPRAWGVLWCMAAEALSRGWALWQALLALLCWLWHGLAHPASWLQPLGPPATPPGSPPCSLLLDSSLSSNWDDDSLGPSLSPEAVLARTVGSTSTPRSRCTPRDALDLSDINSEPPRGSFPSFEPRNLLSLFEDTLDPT

[4] = molecular target: T3, Very long-chain specific acyl-CoA dehydrogenase, mitochondrial (Homo sapiens, UniProt P49748)
T3 sequence (P49748 whole entry): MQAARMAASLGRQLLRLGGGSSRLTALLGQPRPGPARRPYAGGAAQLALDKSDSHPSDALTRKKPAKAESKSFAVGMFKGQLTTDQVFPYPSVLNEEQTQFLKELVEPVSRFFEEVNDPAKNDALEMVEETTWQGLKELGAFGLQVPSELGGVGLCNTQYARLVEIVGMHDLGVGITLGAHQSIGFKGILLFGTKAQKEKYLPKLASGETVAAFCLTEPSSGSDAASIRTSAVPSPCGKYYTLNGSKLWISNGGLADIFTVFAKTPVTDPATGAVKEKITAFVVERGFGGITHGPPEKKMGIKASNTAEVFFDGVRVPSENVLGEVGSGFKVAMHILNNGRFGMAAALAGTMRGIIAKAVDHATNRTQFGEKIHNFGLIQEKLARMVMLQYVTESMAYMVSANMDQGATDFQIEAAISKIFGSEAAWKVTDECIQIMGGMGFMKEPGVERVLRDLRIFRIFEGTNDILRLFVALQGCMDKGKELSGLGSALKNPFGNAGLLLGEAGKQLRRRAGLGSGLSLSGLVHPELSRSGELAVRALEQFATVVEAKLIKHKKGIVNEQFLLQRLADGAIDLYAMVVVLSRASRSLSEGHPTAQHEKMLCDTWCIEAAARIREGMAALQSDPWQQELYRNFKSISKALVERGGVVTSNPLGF

[5] = molecular target: T4, dCTP pyrophosphatase 1 (Homo sapiens, UniProt Q9H773)
T4 sequence (Q9H773 whole entry): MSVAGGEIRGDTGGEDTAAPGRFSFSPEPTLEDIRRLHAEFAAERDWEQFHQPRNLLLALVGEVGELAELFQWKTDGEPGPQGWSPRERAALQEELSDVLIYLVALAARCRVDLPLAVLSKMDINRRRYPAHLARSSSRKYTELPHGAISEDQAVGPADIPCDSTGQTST

[6] = molecular target: T5, RNA cytidine acetyltransferase (Homo sapiens, UniProt Q9H0A0)
T5 sequence (Q9H0A0 whole entry): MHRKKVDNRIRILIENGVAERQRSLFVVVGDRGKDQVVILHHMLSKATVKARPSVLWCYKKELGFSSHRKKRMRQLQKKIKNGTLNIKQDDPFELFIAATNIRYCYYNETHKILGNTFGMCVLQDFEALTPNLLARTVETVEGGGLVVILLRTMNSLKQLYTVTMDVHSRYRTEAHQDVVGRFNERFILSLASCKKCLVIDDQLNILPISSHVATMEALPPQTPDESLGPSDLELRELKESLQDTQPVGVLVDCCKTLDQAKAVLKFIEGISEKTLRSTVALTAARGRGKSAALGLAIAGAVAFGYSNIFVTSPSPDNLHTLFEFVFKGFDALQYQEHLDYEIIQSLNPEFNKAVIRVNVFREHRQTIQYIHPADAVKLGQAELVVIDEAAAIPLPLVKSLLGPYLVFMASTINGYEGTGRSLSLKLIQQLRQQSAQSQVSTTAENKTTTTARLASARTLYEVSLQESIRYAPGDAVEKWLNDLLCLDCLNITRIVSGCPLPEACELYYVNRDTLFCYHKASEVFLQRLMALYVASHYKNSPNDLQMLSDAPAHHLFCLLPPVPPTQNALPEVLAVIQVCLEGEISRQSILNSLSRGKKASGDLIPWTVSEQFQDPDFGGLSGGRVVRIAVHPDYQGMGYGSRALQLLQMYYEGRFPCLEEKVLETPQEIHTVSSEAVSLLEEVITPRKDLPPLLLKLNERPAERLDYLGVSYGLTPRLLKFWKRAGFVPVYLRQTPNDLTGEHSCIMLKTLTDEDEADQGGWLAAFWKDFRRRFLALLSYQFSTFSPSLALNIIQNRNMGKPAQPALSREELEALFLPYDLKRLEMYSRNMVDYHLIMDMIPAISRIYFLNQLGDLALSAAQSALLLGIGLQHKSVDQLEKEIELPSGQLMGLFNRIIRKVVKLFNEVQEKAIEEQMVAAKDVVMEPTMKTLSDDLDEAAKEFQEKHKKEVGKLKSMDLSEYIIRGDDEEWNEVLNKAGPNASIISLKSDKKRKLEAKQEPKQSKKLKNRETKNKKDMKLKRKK

[7] = molecular target: Serine/threonine-protein kinase MRCK alpha (Homo sapiens, UniProt Q5VT25)
[8] = molecular target: Serine/threonine-protein kinase PAK 2 (Homo sapiens, UniProt Q13177)
Sequence of Serine/threonine-protein kinase PAK 2 (Q13177 whole entry): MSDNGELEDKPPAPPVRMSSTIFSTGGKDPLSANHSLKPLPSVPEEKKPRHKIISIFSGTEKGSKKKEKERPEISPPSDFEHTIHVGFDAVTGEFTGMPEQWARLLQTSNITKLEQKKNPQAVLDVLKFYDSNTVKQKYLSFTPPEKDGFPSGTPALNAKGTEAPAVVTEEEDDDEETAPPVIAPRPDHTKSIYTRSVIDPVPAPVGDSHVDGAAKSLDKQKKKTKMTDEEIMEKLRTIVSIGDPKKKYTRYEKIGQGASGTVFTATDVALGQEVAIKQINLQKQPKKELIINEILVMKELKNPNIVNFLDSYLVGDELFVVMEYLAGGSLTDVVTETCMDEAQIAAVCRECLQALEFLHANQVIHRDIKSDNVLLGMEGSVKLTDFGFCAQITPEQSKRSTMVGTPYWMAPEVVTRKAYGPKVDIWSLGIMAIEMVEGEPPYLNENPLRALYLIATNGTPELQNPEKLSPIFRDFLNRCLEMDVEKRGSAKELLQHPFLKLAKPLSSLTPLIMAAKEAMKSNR

Sequence of Serine/threonine-protein kinase MRCK alpha (Q5VT25 whole entry): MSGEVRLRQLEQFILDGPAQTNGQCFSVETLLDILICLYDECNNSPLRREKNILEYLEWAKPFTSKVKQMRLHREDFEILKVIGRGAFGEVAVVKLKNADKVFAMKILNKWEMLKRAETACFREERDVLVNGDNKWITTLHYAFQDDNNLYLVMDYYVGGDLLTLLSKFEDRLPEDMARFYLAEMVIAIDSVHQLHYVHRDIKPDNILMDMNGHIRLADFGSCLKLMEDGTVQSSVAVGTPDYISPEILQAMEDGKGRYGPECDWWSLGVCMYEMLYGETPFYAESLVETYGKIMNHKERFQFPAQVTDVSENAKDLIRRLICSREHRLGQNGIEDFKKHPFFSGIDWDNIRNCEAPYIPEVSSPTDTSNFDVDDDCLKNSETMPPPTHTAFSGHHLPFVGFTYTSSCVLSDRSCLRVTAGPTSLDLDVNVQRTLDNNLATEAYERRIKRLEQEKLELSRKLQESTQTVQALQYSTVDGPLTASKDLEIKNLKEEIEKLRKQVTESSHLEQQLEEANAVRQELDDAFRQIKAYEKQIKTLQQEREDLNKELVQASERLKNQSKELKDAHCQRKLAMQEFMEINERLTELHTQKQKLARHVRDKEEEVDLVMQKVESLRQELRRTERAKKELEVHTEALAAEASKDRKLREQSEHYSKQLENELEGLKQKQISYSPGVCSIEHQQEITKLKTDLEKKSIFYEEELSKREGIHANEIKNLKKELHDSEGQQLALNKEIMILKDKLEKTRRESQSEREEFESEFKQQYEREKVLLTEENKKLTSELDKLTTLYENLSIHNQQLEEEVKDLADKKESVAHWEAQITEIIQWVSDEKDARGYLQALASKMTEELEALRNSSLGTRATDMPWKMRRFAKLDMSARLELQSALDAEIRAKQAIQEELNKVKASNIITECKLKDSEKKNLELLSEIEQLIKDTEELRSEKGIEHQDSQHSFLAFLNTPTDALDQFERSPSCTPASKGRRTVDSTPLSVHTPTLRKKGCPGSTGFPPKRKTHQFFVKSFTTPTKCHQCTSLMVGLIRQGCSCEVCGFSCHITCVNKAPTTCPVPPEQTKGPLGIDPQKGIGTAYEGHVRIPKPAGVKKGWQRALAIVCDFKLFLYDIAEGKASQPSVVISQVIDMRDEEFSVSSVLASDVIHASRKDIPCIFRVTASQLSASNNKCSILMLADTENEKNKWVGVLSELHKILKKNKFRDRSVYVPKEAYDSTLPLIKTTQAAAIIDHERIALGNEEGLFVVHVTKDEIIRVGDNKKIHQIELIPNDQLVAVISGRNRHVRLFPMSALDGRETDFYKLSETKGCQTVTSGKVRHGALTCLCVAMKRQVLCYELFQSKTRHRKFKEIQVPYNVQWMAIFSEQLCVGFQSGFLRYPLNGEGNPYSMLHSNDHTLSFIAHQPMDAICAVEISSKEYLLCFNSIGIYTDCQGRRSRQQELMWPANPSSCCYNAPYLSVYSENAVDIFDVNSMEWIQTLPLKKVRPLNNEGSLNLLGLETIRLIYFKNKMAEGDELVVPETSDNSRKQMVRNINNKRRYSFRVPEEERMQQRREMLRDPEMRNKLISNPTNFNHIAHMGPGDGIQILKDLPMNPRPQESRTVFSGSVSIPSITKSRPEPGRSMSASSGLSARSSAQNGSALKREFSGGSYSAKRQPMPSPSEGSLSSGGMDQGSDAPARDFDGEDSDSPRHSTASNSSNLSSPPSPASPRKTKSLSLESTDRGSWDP
Sequence of Mitogen-activated protein kinase 1 (P28482 whole entry): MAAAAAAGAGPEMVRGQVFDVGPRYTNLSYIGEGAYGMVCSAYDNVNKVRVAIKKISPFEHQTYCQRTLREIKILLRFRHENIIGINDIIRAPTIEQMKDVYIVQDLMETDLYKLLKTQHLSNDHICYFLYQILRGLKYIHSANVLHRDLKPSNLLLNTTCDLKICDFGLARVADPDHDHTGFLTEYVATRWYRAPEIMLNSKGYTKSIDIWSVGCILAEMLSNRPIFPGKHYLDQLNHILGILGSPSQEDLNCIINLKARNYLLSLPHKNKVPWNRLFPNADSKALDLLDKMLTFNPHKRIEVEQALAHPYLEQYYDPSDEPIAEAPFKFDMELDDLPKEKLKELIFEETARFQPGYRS

Row | SMILES | Kd [1] | Kd [2] | Kd [3] | Kd [4] | Kd [5] | Kd [6] | Kd [8] | Kd [7]
1 | C[C@H]1CNCCCN1S(=O)(=O)c1cccc2cncc(F)c12 | > 30 µM (inactive) | > 30 µM (inactive) | > 30 µM (inactive) | > 30 µM (inactive) | > 30 µM (inactive) | > 30 µM (inactive) |  | 
2 | CC(=O)c1cnc2ccc(-c3cc(Cl)c(O)c(Cl)c3)nc2c1N[C@H]1CC[C@H](CN(C)C)CC1 | > 30 µM (inactive) | > 30 µM (inactive) | > 30 µM (inactive) | > 30 µM (inactive) | > 30 µM (inactive) | > 30 µM (inactive) | > 30 µM (inactive) | > 30 µM (inactive)
3 | CCNC(=O)C#Cc1ccc2c(c1)NC(=O)/C2=C(\Nc1ccc(CN(C)C)cc1)c1ccccc1 | > 30 µM (inactive) | > 30 µM (inactive) | > 30 µM (inactive) | > 30 µM (inactive) | > 30 µM (inactive) | > 30 µM (inactive) | > 30 µM (inactive) | > 30 µM (inactive)
4 | C=CC(=O)N1CCC[C@H](n2c(=O)n(-c3ccc(Oc4ccccc4)cc3)c3c(N)ncnc32)C1 | > 30 µM (inactive) | > 30 µM (inactive) | > 30 µM (inactive) | > 30 µM (inactive) | > 30 µM (inactive) | > 30 µM (inactive) |  | > 30 µM (inactive)
5 | COCc1c(-c2ccc(NC(=O)Nc3cc(C(F)(F)F)ccc3F)c(F)c2)c2c(N)ncnn2c1CN1CCOCC1 | > 30 µM (inactive) | > 30 µM (inactive) | > 30 µM (inactive) | > 30 µM (inactive) | > 30 µM (inactive) | > 30 µM (inactive) | > 30 µM (inactive) | > 30 µM (inactive)
6 | COc1cc(Nc2ncc3c(n2)-c2ccc(Cl)cc2C(c2c(F)cccc2OC)=NC3)ccc1C(=O)O [ALISERTIB] | > 30 µM (inactive) |  | > 30 µM (inactive) | > 30 µM (inactive) | > 30 µM (inactive) | > 30 µM (inactive) | > 30 µM (inactive) | 
7 | CNC(=O)c1ccccc1Sc1ccc2c(/C=C/c3ccccn3)n[nH]c2c1 [AXITINIB] | > 30 µM (inactive) |  |  | > 30 µM (inactive) | > 30 µM (inactive) | > 30 µM (inactive) |  | 
8 | NC(=O)Nc1cc(-c2cccc(F)c2)sc1C(=O)N[C@H]1CCCNC1 [AZD-7762] | > 30 µM (inactive) | > 30 µM (inactive) | > 30 µM (inactive) | > 30 µM (inactive) | > 30 µM (inactive) | > 30 µM (inactive) |  | > 30 µM (inactive)
9 | CC(C)(C)c1nc(-c2cccc(NS(=O)(=O)c3c(F)cccc3F)c2F)c(-c2ccnc(N)n2)s1 [DABRAFENIB] | > 30 µM (inactive) | > 30 µM (inactive) | > 30 µM (inactive) | > 30 µM (inactive) | > 30 µM (inactive) | > 30 µM (inactive) |  | > 30 µM (inactive)
10 | Cn1cc(C2=C(c3cn(C4CCN(Cc5ccccn5)CC4)c4ccccc34)C(=O)NC2=O)c2ccccc21 [ENZASTAURIN] | > 30 µM (inactive) |  |  | > 30 µM (inactive) | > 30 µM (inactive) | > 30 µM (inactive) |  | 
11 | Cc1nc2cc(-n3ncc(C(=O)c4cc5ccccc5[nH]4)c3N)ccc2[nH]1 [FGFR INHIBITOR DEBIO 1347] | > 30 µM (inactive) | > 30 µM (inactive) | > 30 µM (inactive) |  | > 30 µM (inactive) | > 30 µM (inactive) | > 30 µM (inactive) | > 30 µM (inactive)
12 | O=C(Nc1cc(C(F)(F)F)cc(C(F)(F)F)c1)c1cc(Cl)ccc1O [IMD-0354] | > 30 µM (inactive) |  | > 30 µM (inactive) | > 30 µM (inactive) | > 30 µM (inactive) | > 30 µM (inactive) | > 30 µM (inactive) | 
13 | Cc1[nH]c(/C=C2\C(=O)Nc3ccccc32)c(C)c1CCC(=O)O [ORANTINIB] | > 30 µM (inactive) |  | > 30 µM (inactive) | > 30 µM (inactive) | > 30 µM (inactive) | 1.24 µM | > 30 µM (inactive) | 
14 | CC(=O)NCC(=O)N1[C@@H]2CC[C@H]1c1ccc(Nc3ncc(C(F)(F)F)c(NC4CCC4)n3)cc12 [PF-03814735] | > 30 µM (inactive) |  | > 30 µM (inactive) | > 30 µM (inactive) | > 30 µM (inactive) | > 30 µM (inactive) |  | 
15 | N#CC[C@H](C1CCCC1)n1cc(-c2ncnc3[nH]ccc23)cn1 [RUXOLITINIB] | > 30 µM (inactive) |  |  | > 30 µM (inactive) | > 30 µM (inactive) | > 30 µM (inactive) |  | 
16 | CN1CCN(CCOc2cc(OC3CCOCC3)c3c(Nc4c(Cl)ccc5c4OCO5)ncnc3c2)CC1 [SARACATINIB] | > 30 µM (inactive) | > 30 µM (inactive) |  | > 30 µM (inactive) | > 30 µM (inactive) | > 30 µM (inactive) |  | > 30 µM (inactive)

Continued, in another order:

Row | Kd [1] | Kd [2] | Kd [3] | Kd [4] | Kd [5] | Kd [6] | Kd [8] | SMILES | Kd [7]
17 | > 30 µM (inactive) |  |  | > 30 µM (inactive) | > 30 µM (inactive) | > 30 µM (inactive) |  | C[C@@H](Oc1cc(-n2cnc3ccc(CN4CCN(C)CC4)cc32)sc1C(N)=O)c1ccccc1C(F)(F)F [GSK-461364] | 
18 | > 30 µM (inactive) |  | > 30 µM (inactive) | > 30 µM (inactive) | > 30 µM (inactive) | > 30 µM (inactive) |  | NC(=O)c1c(OCc2c(F)cc(Br)cc2F)nsc1NC(=O)NCCCCN1CCCC1 [OSI-632] | 
19 | > 30 µM (inactive) |  |  | > 30 µM (inactive) | > 30 µM (inactive) | > 30 µM (inactive) |  | O=C(NOCCO)c1cc(CN2OCCCC2=O)c(F)c(F)c1Nc1ccc(I)cc1F [RO-4987655] | 
